Source: patent US20220298158A1, “POLYMORPH OF VENETOCLAX AND METHOD FOR PREPARING THE POLYMORPH” (Johnson Matthey Public Limited Company, priority 2019, published 2022)

Test: Stability study of venetoclax anhydrate under storage conditions (XRPD before and after storage)
Format: physicochemical
Description: FIG. 6 is representative XRPD overlay of venetoclax anhydrate before storage (bottom), venetoclax anhydrate after storage at 25° C./97% RH (relative humidity) for 7 days (middle), and venetoclax anhydrate after storage at 40° C./75% RH for 7 days (top).
X-Ray Powder Diffraction patterns were collected on a Bruker AXS C2 GADDS diffractometer using Cu Kα radiation (40 kV, 40 mA), automated XYZ stage, laser video microscope for auto-sample positioning and a HiStar 2-dimensional area detector. X-ray optics consists of a single Göbel multilayer mirror coupled with a pinhole collimator of 0.3 mm.
The beam divergence, i.e. the effective size of the X-ray beam on the sample, was approximately 4 mm. A θ-θ continuous scan mode was employed with a sample—detector distance of 20 cm which gives an effective 2θ range of 3.2° — 29.7° . Typically the sample would be exposed to the X-ray beam for 120 seconds. The software used for data collection was GADDS for XP/2000 4.1.43 and the data were analysed and presented using Diffrac Plus EVA v15.0.0.0.
Stability studies of venetoclax anhydrate under two storage conditions were also carried out. FIG. 6 is representative XRPD overlay of venetoclax anhydrate before storage (bottom), venetoclax anhydrate after storage at 25° C/97% RH (relative humidity) for 7 days (middle), and venetoclax anhydrate after storage at 40° C/75% RH for 7 days (top). […]

**Q.** For `CC1(C)CCC(CN2CCN(c3ccc(C(=O)NS(=O)(=O)c4ccc(NCC5CCOCC5)c([N+](=O)[O-])c4)c(Oc4cnc5[nH]ccc5c4)c3)CC2)=C(c2ccc(Cl)cc2)C1` [venetoclax anhydrate, 4-(4-{[2-(4-chlorophenyl)-4,4-dimethylcyclohex-1-en-1-yl]methyl}piperazin-1-yl)-N-({3-nitro-4-[(tetrahydro-2H-pyran-4-ylmethyl)amino]phenyl}sulfonyl)-2-(1H-pyrrolo[2,3-b]pyridine-5-yloxy)benzamide], which “time the anhydrate remains stable on storage (XRPD overlay)” value (storage at 25° C/97% RH (relative humidity) for 7 days) is on record?
**A.** at least 7 days

**Q.** And the “time the anhydrate remains stable on storage (XRPD overlay)” value (storage at 40° C/75% RH for 7 days)?
**A.** at least 7 days
